Results on two molecules are retold here after US11926640B2, “Prodrugs of glutamine analogs” (THE JOHNS HOPKINS UNIVERSITY, priority 2015, dated 2024).

“Also recorded” adds a separate entry of the source. Like-named read-outs stand apart in the source and are kept apart here.

One data set deals with colon cancer cells. The data set is described as follows: rechallenge of compound 25 treated mice with colon cancer cells. The data set is classed as in vivo. The note with it: mice previously treated with single agent.
Data set [1] in a line: Cmax, tumor to gut ratio and GI toxicity of 25 vs DON at equimolar doses in mice. The note with it: 0.8 mg/kg (equivalent) daily for 5 days.
The conditions of data set [2]: pig microsomes.
For a further data set, the system named is 4T1 tumor cells. The experiment in a line: 4T1 breast cancer model. Format: in vivo, BALB/c mice. The note with it: single agent, about 1 mg/kg daily. As to the method: 4T1 tumor cells (0.1 million) were injected into the mammary fat pads of 8-week-old female BALB/c mice. Mice received vehicle (PBS) or 1 mg/kg compound 25 daily from day 5 to day 22. Photos were taken on day 30 after tumor inoculation (FIG. 57A). Tumor volume was measured 2-3 times weekly until WT mice were sacrificed (when size reached to 20 mm length or necrosis occurred). Day 0: 100K 4T1 cells s.c. in 4th mammary pad. Day 5-22: Daily compound 25.
4T1-Luc tumor cells (0.1 million) were injected into the mammary fat pads of 8-week-old female BALB/c mice. Mice received vehicle (PBS) or 1 mg/kg compound 25 daily from day 7. Anti-PD1 (5 mg/Kg) was administered on day 5, 8, and 12. Mice carrying 4T1-luc tumors are injected with Luciferin to measure luminescence from the tumor. IVIS imaging were taken on day 13.
4T1-Luc tumor cells (0.1 million) were injected into the mammary fat pads of 8-week-old female BALB/c mice. Mice received vehicle (PBS) or 1 mg/kg compound 25 daily from day 7 to day 16. Anti-PD1 (5 mg/Kg) was administered on day 5, 8, 12 and 17. Tumor volume was measured 2-3 times weekly until tumors were evaluated for tumor infiltrating cells on day 21. Tumor weights were measured on day 21. On day 21, the PD1 group tumor size looks like it was reduced, however, the result was not due to a tumor size reduction, but rather because one of the large tumor mice died.

For data set [3] the following is noted: mouse, in vivo.
A further data set has as its system EL4 mouse lymphoma. The data set is described as follows: EL4 mouse lymphoma model. The note with it: in vivo.
For the next data set, the system named is MC38 colon cancer. The experiment in a line: MC38 tumor model. The note with it: single agent. The data set is classed as in vivo, mice.
The test system of another data set is CT26 colon cancer. The experiment in a line: CT26 tumor model. The data set is classed as in vivo, mice. The note with it: single agent.
The conditions of data set [4]: mouse, in vivo. The source holds these as a separate data set.
The conditions of data set [5]: human microsomes.
Data set [6] can be described thus: tolerability of daily treatment with DON or 25 in mice.
Data set [7] is described as follows: 5-day i.v. toxicity comparison of DON and 38 in pigs. The data set is classed as in vivo.
For a further data set, the system named is U87 human glioma cells. The experiment in a line: U87 flank xenograft mouse model of GBM. The data set is classed as in vivo. As to the method: Mice Efficacy Studies. All mouse efficacy studies were conducted according to protocol #MO13M69 approved by the Animal Care and Use Committee at Johns Hopkins University. Female athymic (RH-Foxn1nu mice) mice between 25 and 30 g were obtained (Harlan Sprague Dawley Inc. Indianapolis. Indiana), and maintained on a 12 hour light-dark cycle with ad libitum access to food and water. U87 human glioma cells were injected s.c. (5×10^6 cells in […] of PBS) in four separate locations on the flanks of each mouse. When tumors grew to a mean volume of around 200 mm^3, mice were randomized into either vehicle (HEPES-buffered saline, i.p.) or DON (1; 0.8 mg/kg, i.p.). In one cohort, mice were administered a single dose of the appropriate solution two hours after which glutamine levels were quantified in the tumor as described previously (Le et al., 2012). In brief, tumors were harvested, snap frozen, and homogenized in liquid N, then subjected to metabolite extraction using methanol and DI water. Quantification was performed using Agilent 6520 Quadrupole-Time-of-Flight (Q-TOF) mass spectrometer with Agilent 1290 HPLC and using Agilent Mass Hunter and Agilent Qualitative and Quantitative Analysis Software packages. Glutamine content was averaged by group for each individual tumor (n=3-4/group), depicted as relative intensity, and analyzed by one-tailed t test. In a second cohort, efficacy experiments were conducted. Mice were injected once daily for six days; tumor volumes were measured using digital calipers and calculated according to the formula: [volume=(largest tumor dimension)×(smallest tumor dimension)^2×0.52] at 2, 4, and 6 days after the onset of treatment. Each individual tumor (n=8-10/group) was normalized to its pretreatment volume, averaged and analyzed by repeated measures two-way analysis of variance (ANOVA). If significant, a Bonferroni post hoc test was subsequently applied. Significance was defined as p<0.05.

The next data set deals with melanoma. The data set is described as follows: melanoma growth model. Particulars: in vivo.

With `CCOC(=O)[C@H](CCC(=O)C=[N+]=[N-])NC(=O)[C@@H](N)CC(C)C` [Compound 25, Ethyl 2-(2-amino-4-methylpentanamido)-6-diazo-5-oxohexanoate], the “colon cancer cell proliferation upon rechallenge (in words)” value in the data set on colon cancer cells is given as “prevents colon cancer cell proliferation upon rechallenge”. Besides, the “GI toxicity, jejunum-ileum histology (in words)” value in data set [1] is “causes less GI toxicity”. Also, in data set [2], the “liver microsomal stability (in words)” value is on record as “moderate-high stability”. For the same molecule, the “antitumor efficacy in 4T1 breast cancer model (in words)” value in the data set with 4T1 tumor cells is “superior to CB-839; also recorded: robust response and improved overall survival; also recorded: inhibited the growth of mammary carcinoma tumor cells; also recorded: inhibits tumor growth”. Also, in data set [3], the “Cmax vs DON (in words)” value is given as “reduces Cmax” and the “tumor to gut ratio vs DON (in words)” value is listed as “enhances tumor to gut ratio”. Also, the “antitumor efficacy against lymphoma (in words)” value in the data set with EL4 mouse lymphoma was “cure lymphoma; also recorded: efficacious”. For the same molecule, the “antitumor efficacy in MC38 tumor model (in words)” value with MC38 colon cancer was “complete and durable response; also recorded: inhibits colon cell proliferation and extends the survival of mice; also recorded: efficacious; also recorded: more efficacious than oxaliplatin”. For the same molecule, in the data set with CT26 colon cancer, the “antitumor efficacy in CT26 tumor model (in words)” value is “superior to CB-839; also recorded: robust response and improved overall survival”. Also, in data set [4], the “blood counts (in words)” value is “some leukopenia”; the “body weight (in words)” value is reported as “No weight loss”; the “bone marrow suppression (in words)” value is reported as “no bone marrow suppression”; the “renal and liver function (in words)” value is given as “unaffected”. Moreover, the “liver microsomal stability (in words)” value in data set [5] was “moderate-high stability”.

For the molecule `[N-]=[N+]=CC(=O)CC[C@H](N)C(=O)O` [DON, 6-diazo-5-oxo-L-norleucine], the “GI toxicity, jejunum-ileum histology (in words)” value in data set [1] is “significant inflammation”. Besides, in [6] (daily high dose treatment), the “blood counts (in words)” value is given as “pan-cytopenia” and the “body weight (in words)” value is given as “weight loss”. Besides, the “renal and liver function (in words)” value in [6] (high dose) is on record as “unaffected”. Besides, the “antitumor efficacy against lymphoma (in words)” value in the data set on EL4 mouse lymphoma is recorded as “cure lymphoma; also recorded: markedly inhibits lymphoma growth; also recorded: efficacious”. Also, the “macroscopic stomach toxicity (in words)” value in data set [7] (5 days of dosing) is “more severe stomach toxicity”. The “adverse clinical signs (in words)” value in data set [7] (DON 1.6 mg/kg vs 38 1.5 mg/kg, i.v. 2 h/day for 5 days, equivalent PBMC exposure) is recorded as “more adverse clinical signs; also recorded: more adverse clinical effects”. The “flank GBM tumor size (in words)” value with U87 human glioma cells (0.8 mg/kg, i.p, q.d. days 1-6) is “dramatic reduction in tumor size”. For the same molecule, in the data set with U87 human glioma cells (0.8 mg/kg, i.p., 2 hours post-administration, flank GBM tumors), the “glutamine metabolism in tumor (endogenous glutamine accumulation)” value was “inhibited glutamine metabolism”. Moreover, in the data set with U87 human glioma cells (mice receiving DON 0.8 mg/kg, i.p, q.d.), the “signs of toxicity (in words)” value was “significant signs of toxicity”. Moreover, the “effect on melanoma growth (in words)” value with melanoma is given as “modest effect on inhibiting melanoma growth”.
